Broadly, the MIC is the smallest concentration in the dilution series that meets the test's criterion for growth inhibition. One may read the Ki as the equilibrium dissociation constant of an inhibitor or competing ligand from its target.

The values below come from ChEMBL document CHEMBL3124778, “Structure-based design of new dihydrofolate reductase antibacterial agents: 7-(benzimidazol-1-yl)-2,4-diaminoquinazolines” (J Med Chem, 2014).

For assay [1], the system named is Staphylococcus aureus. Nature of the assay: Antibacterial activity against Staphylococcus aureus ATCC 13709 after 18 to 24 hrs by alamar Blue assay. The format is functional. In general terms: Resazurin is reduced to fluorescent resorufin, in cell work by metabolically active cells.
Assay [2] concerns Staphylococcus aureus. In words: Antibacterial activity against TMP-resistant Staphylococcus aureus expressing DHFR F99Y mutant after 18 to 24 hrs by alamar Blue assay. The format is functional.
Assay [3] has as its target T1, Dihydrofolate reductase (Homo sapiens, UniProt P00374).
T1 sequence (P00374 whole entry): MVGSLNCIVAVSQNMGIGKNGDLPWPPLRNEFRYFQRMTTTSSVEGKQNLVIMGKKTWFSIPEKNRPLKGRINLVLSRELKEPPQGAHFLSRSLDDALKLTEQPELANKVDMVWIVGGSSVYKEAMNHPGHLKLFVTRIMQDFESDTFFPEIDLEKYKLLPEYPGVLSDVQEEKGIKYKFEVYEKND
In words: Inhibition of human DHFR using dihydrofolate as substrate preincubated for 10 mins followed by substrate addition by spectrophotometric analysis in presence of NADPH.

Assay [4] deals with Staphylococcus aureus. Nature of the assay: Antibacterial activity against Staphylococcus aureus ATCC 13709 after 18 to 24 hrs by alamar Blue assay in presence of 20% heat inactivated mouse serum. In kind it is functional.
The target in assay [5] is Dihydrofolate reductase (Staphylococcus aureus, UniProt P0A017). Nature of the assay: Inhibition of Staphylococcus aureus DHFR using dihydrofolate as substrate preincubated for 10 mins followed by substrate addition by spectrophotometric analysis in presence of NADPH.
Chain of Dihydrofolate reductase (Staphylococcus aureus, UniProt P0A017) (P0A017 whole entry): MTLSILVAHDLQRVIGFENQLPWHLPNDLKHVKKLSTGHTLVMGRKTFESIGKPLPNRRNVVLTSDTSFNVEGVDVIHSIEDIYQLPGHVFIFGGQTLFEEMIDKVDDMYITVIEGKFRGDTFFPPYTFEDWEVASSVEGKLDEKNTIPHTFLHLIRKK
Assay [6] is described as follows: Selectivity ratio of Ki for human DHFR to Ki for Staphylococcus aureus DHFR.

The structures appear in SMILES notation. Values after ≈ are worked out from the molar mass of the structure shown.

On to `Cc1cc2nc(-c3ccsc3)n(-c3ccc4c(N)nc(N)nc4c3)c2cc1C`, for which the minimum inhibitory concentration (MIC) in assay [1] was 0.03 µg/mL (≈ 0.0776 µM); in assay [2], 2 µg/mL (≈ 5.17 µM).

Turning to `COc1cc2nc(-c3ccco3)n(-c3cc4nc(N)nc(N)c4cc3Cl)c2cc1OC`, the Ki in assay [3] came out at 610 nM; in assay [5], 0.024 nM. Also, the MIC in assay [1] worked out at 0.5 µg/mL (≈ 1.14 µM); in assay [4], 0.5 µg/mL; in assay [2], 8 µg/mL (≈ 18.3 µM).

For the molecule `CN(Cc1cnc2nc(N)nc(N)c2n1)c1ccc(C(=O)N[C@@H](CCC(=O)O)C(=O)O)cc1` [METHOTREXATE], the minimal inhibitory concentration (MIC) in assay [1] was above 64 µg/mL.

For the molecule `Cc1cc2nc(-c3ccccn3)n(-c3ccc4c(N)nc(N)nc4c3)c2cc1C`, the minimum inhibitory concentration (MIC) amounted to 0.125 µg/mL (≈ 0.328 µM) in assay [1] and 4 µg/mL (≈ 10.5 µM) in assay [2]. In addition, the Ratio Ki in assay [6] worked out at 26000.

With `Cc1cc2nc(C3CCCO3)n(-c3ccc4c(N)nc(N)nc4c3)c2cc1C` (stereo not drawn), the figures for the Ki in assay [3] and in assay [5] were 749 nM and 0.2 nM, respectively. Further, the MIC was 0.5 µg/mL (≈ 1.34 µM) in assay [1], above 16 µg/mL in assay [4] and 16 µg/mL (≈ 42.7 µM) in assay [2].

`Cc1cc2nc(-c3cncn3C)n(-c3ccc4c(N)nc(N)nc4c3)c2cc1C`: the results for the inhibition constant Ki in assay [3] and in assay [5] were 2920 nM and 1.1 nM, respectively. Besides, the results for the MIC in assay [1], in assay [4] and in assay [2] were 4 µg/mL (≈ 10.4 µM), 32 µg/mL and 64 µg/mL (≈ 166 µM), respectively.

Take `COc1cc2nc(-c3nccs3)n(-c3ccc4c(N)nc(N)nc4c3)c2cc1OC`: the lowest concentration to inhibit growth in assay [2] (MIC) was 16 µg/mL (≈ 38.1 µM). Also, the Ratio Ki in assay [6] was found to be 5300.

For `COc1cc2nc(-c3nccs3)n(-c3cc4nc(N)nc(N)c4cc3Cl)c2cc1OC`, the MIC in assay [1] amounted to 0.125 µg/mL (≈ 0.275 µM); in assay [2] it was 2 µg/mL (≈ 4.41 µM). Also, in assay [6], the Ratio Ki is 29000.

Molecule `Cc1cc2nc(N3CCOCC3)n(-c3ccc4c(N)nc(N)nc4c3)c2cc1C` gave an MIC in assay [2] above 64 µg/mL.

`COc1cc2nc(-c3cccs3)n(-c3cc4nc(N)nc(N)c4cc3Cl)c2cc1OC`: the inhibitory constant (Ki) in assay [3] was above 3000 nM; in assay [5] it was 0.048 nM. In addition, the minimal inhibitory concentration (MIC) in assay [1] was 0.5 µg/mL (≈ 1.1 µM); in assay [4] it was 0.5 µg/mL; in assay [2] it was 4 µg/mL (≈ 8.83 µM).

On to `Cc1cc2nc(-c3nccs3)n(-c3cc4nc(N)nc(N)c4cc3C)c2cc1C`, for which the minimal inhibitory concentration (MIC) in assay [1] was 0.03 µg/mL (≈ 0.0747 µM); in assay [4] it was 0.06 µg/mL; in assay [2], 0.125 µg/mL (≈ 0.311 µM). Besides, the Ratio Ki in assay [6] is 97.

Take `Cc1cc2nc(C3CC3)n(-c3ccc4c(N)nc(N)nc4c3)c2cc1C`: the minimum inhibitory concentration (MIC) worked out at 0.5 µg/mL (≈ 1.45 µM) in assay [1] and 8 µg/mL (≈ 23.2 µM) in assay [2].

Take `Cc1cc2nc(-c3ccco3)n(-c3ccc4c(N)nc(N)nc4c3)c2cc1C`: the inhibitory constant (Ki) in assay [3] is 943 nM; in assay [5] it was 0.007 nM. In addition, the MIC in assay [1] was found to be 0.015 µg/mL (≈ 0.0405 µM); in assay [4], 0.125 µg/mL; in assay [2], 1 µg/mL (≈ 2.7 µM).

Consider `Cc1cc2nc(-c3ccncc3)n(-c3ccc4c(N)nc(N)nc4c3)c2cc1C`, for which the inhibitory constant (Ki) in assay [3] turned out to be 437 nM; in assay [5] it was 0.026 nM. The results for the MIC in assay [1], in assay [4] and in assay [2] were 0.125 µg/mL (≈ 0.328 µM), 0.5 µg/mL and 8 µg/mL (≈ 21 µM), respectively.

In the case of `Cc1cc2nc(-c3cccn3C)n(-c3ccc4c(N)nc(N)nc4c3)c2cc1C`, the Ki in assay [3] was above 5000 nM; in assay [5], 4 nM. Moreover, the figures for the minimum inhibitory concentration (MIC) in assay [1], in assay [4] and in assay [2] were 8 µg/mL (≈ 20.9 µM), 32 µg/mL and 64 µg/mL (≈ 167 µM), respectively.

For the molecule `Cc1cc2nc(C3CCOC3)n(-c3ccc4c(N)nc(N)nc4c3)c2cc1C` (stereo not drawn), the Ki was above 5000 nM in assay [3] and 4.2 nM in assay [5]. The minimum inhibitory concentration (MIC) in assay [1] is 8 µg/mL (≈ 21.4 µM); in assay [4], 64 µg/mL; in assay [2], above 64 µg/mL.

Take `COc1ccc(-c2nc3cc(C)c(C)cc3n2-c2ccc3c(N)nc(N)nc3c2)cc1`: the Ki worked out at 2300 nM in assay [3] and 0.34 nM in assay [5]. Further, the values for the minimal inhibitory concentration (MIC) in assay [1], in assay [4] and in assay [2] were 2 µg/mL (≈ 4.87 µM), 8 µg/mL and above 64 µg/mL, respectively.

Consider `Cc1cc2ncn(-c3ccc4c(N)nc(N)nc4c3)c2cc1C`, for which the inhibition constant (Ki) in assay [3] was found to be 1610 nM; in assay [5], 1.7 nM. Moreover, the MIC was 2 µg/mL (≈ 6.57 µM) in assay [1], 32 µg/mL in assay [4] and above 64 µg/mL in assay [2].
